Assay results: US12351570B2 (MERCK PATENT GMBH, priority 2018, dated 2025)

System: MDA-MB-231 cells
Assay: Extracellular lactate production inhibition after 4 h, MDA-MB-231
Conditions: Homo sapiens, MDA-MB-231
Procedure: Extracellular Lactate Production Inhibition after 4 h
Cells were plated in growth media supplemented with 10% FBS, followed by overnight recovery at 37° C., 5% CO2. […] Plates were then moved for 4 h incubation at 37° C., 5% CO2 with subsequent 20 μl media transfer to empty 384-well transparent plates. […] Plates were short-spun and measured kinetically in absorbance mode (530 nm, 12 min measurement time with 2-minute intervals between subsequent readouts at 30° C.). Differences in the signal between T8 min and T0min were normalized to vehicle (cells w/ 0.25% DMSO) and quasi-positive (LCIS buffer w/ 0.25% DMSO) controls and plotted against logarithmically-transformed test compound concentrations with fitting the 4-parameter model in GraphPad Prism software.

IC50, 10 to 100 nM:
COc1cc(C(=O)O)ncc1C#Cc1cc(Br)c(F)cc1NS(=O)(=O)c1c(C)ccc2cccnc12 [Compound 353, 5-{2-[5-bromo-4-fluoro-2-(7-methylquinoline-8-sulfonamido)phenyl]ethynyl}-4-methoxypyridine-2-carboxylic acid]
Cc1ccc2cccnc2c1S(=O)(=O)Nc1ccccc1C#Cc1cnc2c(c1)COC2=O [Compound 401, 7-methyl-N-[2-(2-{7-oxo-5H,7H-furo[3,4-b]pyridin-3-yl}ethynyl)phenyl]quinoline-8-sulfonamide]
COc1cc(C(=O)OCC2COC(C)(C)O2)ncc1C#Cc1ccccc1NS(=O)(=O)c1c(C)ccc2cccnc12 (stereo not drawn) [Compound 406, (2,2-dimethyl-1,3-dioxolan-4-yl)methyl 4-methoxy-5-{2-[2-(7-methylquinoline-8-sulfonamido)phenyl]ethynyl}pyridine-2-carboxylate]
CCc1cc(C#Cc2ccccc2NS(=O)(=O)c2ccc(OC)c3cccnc23)cnc1C(=O)O [Compound 451, 3-Ethyl-5-[2-(5-methoxy-quinoline-8-sulfonylamino)-phenylethynyl]-pyridine-2-carboxylic acid]
Cc1cc(C(=O)O)ncc1C#Cc1ccccc1NS(=O)(=O)c1c(C)ccc2cccnc12 [Compound 107, 4-methyl-5-{2-[2-(7-methylquinoline-8-sulfonamido)phenyl]ethynyl}pyridine-2-carboxylic acid]
CCCc1ccc(S(=O)(=O)Nc2ccccc2C#Cc2ccc(C(=O)O)nc2)c2ncccc12 [Compound 414, 5-{2-[2-(5-propylquinoline-8-sulfonamido)phenyl]ethynyl}pyridine-2-carboxylic acid]
COc1ccc(S(=O)(=O)Nc2ccc(Br)cc2C#Cc2cnc(C(=O)O)c3ccccc23)c(C)c1C [Compound 398, 4-{2-[5-bromo-2-(4-methoxy-2,3-dimethylbenzenesulfonamido)phenyl]ethynyl}isoquinoline-1-carboxylic acid]
COC(=O)c1cc(Cl)c(C#Cc2ccccc2NS(=O)(=O)c2ccc(OC)c3cccnc23)cn1 [Compound 157, methyl 4-chloro-5-{2-[2-(5-methoxyquinoline-8-sulfonamido)phenyl]ethynyl}pyridine-2-carboxylate]

IC50, 1 to 10 nM:
CCc1ccc2cccnc2c1S(=O)(=O)Nc1ccccc1C#Cc1ccc(C(=O)O)nc1 [Compound 342, 5-{2-[2-(7-ethylquinoline-8-sulfonamido)phenyl]ethynyl}pyridine-2-carboxylic acid]
COc1cc(C(=O)O)ncc1C#Cc1cc(Cl)ccc1NS(=O)(=O)c1ccc(OC)c(C)c1C [Compound 243, 5-{2-[5-chloro-2-(4-methoxy-2,3-dimethylbenzenesulfonamido)-phenyl]ethynyl}-4-methoxypyridine-2-carboxylic acid]

IC50, 100 to 1000 nM:
Cc1cc(C#Cc2ccccc2NS(=O)(=O)c2ccc3c(c2)Cc2ccccc2-3)cnc1C(=O)O [Compound 118, 5-{2-[2-(9H-fluorene-2-sulfonamido)phenyl]ethynyl}-3-methylpyridine-2-carboxylic acid]
COc1ccc(S(=O)(=O)Nc2ccccc2C#Cc2ccc(C(=O)O)cc2)c2c1CCCC2 [Compound 11, 4-{2-[2-(4-methoxy-5,6,7,8-tetrahydronaphthalene-1-sulfonamido)phenyl]ethynyl}benzoic acid]
O=C(O)c1ccc(C#Cc2ccccc2NS(=O)(=O)/C=C/c2ccccc2)cc1 [Compound 334, 4-(2-{2-[(E)-2-phenylethenesulfonamido]-phenyl}ethynyl)benzoic acid]
O=C(O)c1ccc(C#Cc2ccccc2NS(=O)(=O)c2csc3ccccc23)cn1 [Compound 104, 5-{2-[2-(1-benzothiophene-3-sulfonamido)phenyl]ethynyl}pyridine-2-carboxylic acid]
COc1cc(S(=O)(=O)Nc2ccccc2C#Cc2ccc(C(=O)O)cc2)cc2ccccc12 [Compound 258, 4-[2-(4-Methoxy-naphthalene-2-sulfonylamino)-phenylethynyl]-benzoic acid]
Cc1cc(C#Cc2ccccc2NS(=O)(=O)c2ccc3ccccc3c2)cnc1C(=O)O [Compound 49, 3-methyl-5-{2-[2-(naphthalene-2-sulfonamido)phenyl]ethynyl}pyridine-2-carboxylic acid]
O=C(O)c1ccc(C#Cc2ccccc2NS(=O)(=O)c2ccc(-c3ccccc3)cc2)cc1 [Compound 153, 4-[2-(2-{[1,1′-biphenyl]-4-sulfonamido}phenyl)ethynyl]benzoic acid]
Cc1cc(C#Cc2ccccc2NS(=O)(=O)c2ccc3ccccc3c2)ccc1C(=O)O [Compound 10, 2-methyl-4-{2-[2-(naphthalene-2-sulfonamido)phenyl]ethynyl}benzoic acid]
O=C(O)c1ccc(C#Cc2cc(F)ccc2NS(=O)(=O)c2ccc3ccccc3c2)cc1 [Compound 15, 4-{2-[5-fluoro-2-(naphthalene-2-sulfonamido)phenyl]ethynyl}benzoic acid]

IC50, 1000 to 100000 nM:
COC(=O)c1ncc(C#Cc2cc(F)ccc2NS(=O)(=O)c2ccc(OC)c3cccnc23)cc1C [Compound 316, methyl 5-{2-[5-fluoro-2-(5-methoxyquinoline-8-sulfonamido)phenyl]ethynyl}-3-methylpyridine-2-carboxylate]
O=C(O)c1ccc(C#Cc2cc(Cl)ccc2NS(=O)(=O)c2ccc(Cl)cc2)cc1 [Compound 269, 4-[5-Chloro-2-(4-chloro-benzenesulfonylamino)-phenylethynyl]-benzoic acid, reference compound]
CC(C)(C)OC(=O)NCCOCCOCCOc1ccc(NS(=O)(=O)c2cccc3cccnc23)c(C#Cc2ccc(C(=O)O)nc2)c1 [Compound 331, 5-[5-{2-[2-(2-tert-Butoxycarbonylamino-ethoxy)-ethoxy]-ethoxy}-2-(quinoline-8-sulfonylamino)-phenylethynyl]-pyridine-2-carboxylic acid]
O=C(O)c1ccc(C#Cc2ccccc2NS(=O)(=O)c2cccc3c2OCCO3)cc1 [Compound 254, 4-[2-(2,3-Dihydro-benzo[1,4]dioxine-5-sulfonylamino)-phenylethynyl]-benzoic acid]
O=C(O)c1ccc(C#Cc2ccccc2NS(=O)(=O)c2cccc(Br)c2)cn1 [Compound 95, 5-{2-[2-(3-bromobenzenesulfonamido)phenyl]-ethynyl}pyridine-2-carboxylic acid]
Cc1ccc2cccc(S(=O)(=O)Nc3ccccc3C#Cc3cnc(C(=O)O)c4ccccc34)c2n1 [Compound 444, 4-{2-[2-(2-methylquinoline-8-sulfonamido)phenyl]ethynyl}iso-quinoline-1-carboxylic acid]
COc1ccc(S(C)(=O)=Nc2ccccc2C#Cc2ccc(C(=O)O)nc2)cc1 (stereo not drawn) [Compound 428, 5-[2-(2-{[(4-methoxyphenyl)(methyl)oxo-λ6-sulfanylidene]amino}phenyl)ethynyl] pyridine-2-carboxylic acid]
COc1ccc(S(=O)(=O)Nc2ccc(Cl)cc2C#Cc2ccc(C(=O)N(C)C)nc2)c2ncccc12 [Compound 239, 5-{2-[5-chloro-2-(5-methoxyquinoline-8-sulfonamido)phenyl]ethynyl}-N,N-dimethylpyridine-2-carboxamide]
